Biological target: Tyrosine-protein kinase Lck (Homo sapiens, UniProt P06239)
Experiment: Inhibitory concentration against phosphorylation of angiotensin I catalyzed by protein-tyrosine kinase p56lck

Sequence of Tyrosine-protein kinase Lck (P06239 whole entry): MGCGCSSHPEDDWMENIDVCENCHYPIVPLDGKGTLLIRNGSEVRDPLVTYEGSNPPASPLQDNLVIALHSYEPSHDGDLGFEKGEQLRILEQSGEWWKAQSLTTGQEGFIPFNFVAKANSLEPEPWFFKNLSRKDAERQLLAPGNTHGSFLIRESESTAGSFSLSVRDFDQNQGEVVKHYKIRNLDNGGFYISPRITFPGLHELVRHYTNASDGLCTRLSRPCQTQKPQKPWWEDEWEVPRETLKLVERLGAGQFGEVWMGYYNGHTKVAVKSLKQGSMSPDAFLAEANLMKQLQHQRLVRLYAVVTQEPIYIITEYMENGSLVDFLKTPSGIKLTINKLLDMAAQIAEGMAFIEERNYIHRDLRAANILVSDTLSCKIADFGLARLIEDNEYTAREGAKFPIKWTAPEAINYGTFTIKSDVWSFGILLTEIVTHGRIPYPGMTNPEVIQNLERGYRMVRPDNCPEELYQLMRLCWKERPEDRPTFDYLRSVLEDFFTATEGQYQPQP

IC50 [mM]	Compound
> 4.06	C(=N\Nc1ccccc1)/c1ccccn1
1.57	Oc1ccc(/C=N/Nc2ccccc2)c(O)c1O
> 2.9	Brc1ccc(N/N=C/c2ccccn2)cc1
> 3.5	Oc1ccc(O)c(/C=N/Nc2ccccc2)c1
0.144	O=[N+]([O-])c1ccc(N/N=C/c2ccc(O)c(O)c2O)c([N+](=O)[O-])c1
> 2.6	Oc1ccc(Br)cc1/C=N/Nc1ccccc1
> 2.16	Oc1ccc(Br)cc1/C=N/Nc1ccc(Br)cc1
2.59	COc1cc(/C=N/Nc2ccccc2)ccc1O
0.599	Oc1ccc(/C=N/Nc2ccc(Br)cc2)cc1O
2.11	COc1ccc(/C=N/Nc2ccccc2)cc1O
> 2.49	COc1ccc(/C=N/Nc2ccc(Br)cc2)cc1O
0.31	COc1ccc(N/N=C/c2cc(O)ccc2O)cc1
0.179	Oc1cc(/C=N/Nc2ccccn2)cc(O)c1O
0.227	Oc1ccc(/C=N/Nc2ccccn2)cc1O
0.743	COc1ccc(N/N=C/c2ccc(O)c(O)c2)cc1
> 3.32	O=[N+]([O-])c1cccc(/C=N/Nc2ccccc2)c1

IC50 [mM]	Compound
0.4	C(=N\Nc1ccccn1)/c1cccnc1
1.26	Oc1cccc(/C=N/Nc2ccccc2)c1O
0.31	COc1ccc(N/N=C/c2cccc(O)c2O)cc1
1.01	Oc1ccc(/C=N/Nc2ccccn2)c(O)c1
1.32	C(=N\Nc1ccccc1)/c1cccnc1
> 2.9	Brc1ccc(N/N=C/c2ccncc2)cc1
0.352	O=[N+]([O-])c1ccc(N/N=C/c2ccc(O)c(O)c2)c([N+](=O)[O-])c1
> 2.51	O=[N+]([O-])c1ccc(N/N=C/c2cccc(O)c2O)c([N+](=O)[O-])c1
> 2.9	Brc1ccc(N/N=C/c2cccnc2)cc1
> 3.32	O=[N+]([O-])c1ccc(/C=N/Nc2ccccc2)cc1
0.521	Oc1ccc(/C=N/Nc2ccc(Br)cc2)c(O)c1
0.35	Oc1ccc(/C=N/Nc2ccccc2)c(O)c1
0.07	Oc1ccc(/C=N/Nc2ccccc2)cc1O
1.04	Oc1ccc(/C=N/Nc2ccc(Br)cc2)c(O)c1O
0.522	Oc1ccc(/C=N/Nc2ccccn2)c(O)c1O
> 4.06	C(=N\Nc1ccccc1)/c1ccncc1

Compound	IC50 [mM]
O=[N+]([O-])c1ccc(N/N=C/c2ccc(O)cc2O)c([N+](=O)[O-])c1	1

Reference: ChEMBL document CHEMBL1125983, “Synthesis and evaluation of new protein-tyrosine kinase inhibitors. Part 2. Phenylhydrazones” (Bioorg Med Chem Lett, 1991)
